Reference: patent US20210315837A1, “CANNABINOIDS FOR THE TREATMENT OF GRAM-POSITIVE INFECTIONS INCLUDING ANTIBIOTIC-RESISTANT BACTERIAL STRAINS” (priority 2018, published 2021)
≈ marks a conversion by molar mass, not a printed value. Where “and” joins values, the source holds several entries; their conditions need not be identical. Equal values may be shown once. Read-outs that look alike come from different tables or passages of the source.

Tests used:
MRS USA 300 = assay: IC50, MIC and MBC against MRS USA 300; assay type: cell-based, Staphylococcus aureus
Description: (§1) As used herein, the term “minimum inhibitory concentration (MIC)” refers to the lowest concentration of an antimicrobial agent that will inhibit the visible growth of a microorganism after overnight incubation. MIC values against bacteria may be determined by standard methods. See also P. A. Wayne, Methods for Dilution Antimicrobial Tests for Bacteria that Grow Aerobically; Approved Standard, Ninth Edition, 2012, CLSI Document M07-A9, Vol. 32 No. 2, which is incorporated by reference herein in its entirety.

[1] = system: MRS 1708 (Mupirocin-resistant); assay: IC50, MIC and MBC against MRS 1708 (Mupirocin-resistant); assay type: cell-based, Staphylococcus aureus; conditions: for IC50 / MBC / MIC: Staphylococcus aureus
Description: as §1

MRS 33591 [2] = assay: IC50, MIC and MBC against MRS 33591; assay type: cell-based, Staphylococcus aureus
Description: as §1

MRS USA 400 = assay: IC50, MIC and MBC against MRS USA 400; assay type: cell-based, Staphylococcus aureus
Description: as §1

S. aureus 29213 = assay: IC50, MIC and MBC against S. aureus 29213; assay type: cell-based; conditions: Staphylococcus aureus; for IC50: 29213; for MIC: S. aureus 29213, tested Conc. in μg/mL, read-out: MIC
Description: As used herein, the term “minimum inhibitory concentration (MIC)” refers to the lowest concentration of an antimicrobial agent that will inhibit the visible growth of a microorganism after overnight incubation. MIC values against bacteria may be determined by standard methods.

MRS 33591 [3] = assay: Growth inhibition of cannabinoid combinations, IC50s chosen for FICs, MRS 33591; assay type: cell-based; conditions: Staphylococcus aureus
MRS 1696 = assay: Growth inhibition of cannabinoid combinations, IC50s chosen for FICs, MRS 1696; assay type: cell-based; conditions: Staphylococcus aureus
MRS 1708 = assay: Growth inhibition of cannabinoid combinations, IC50s chosen for FICs, MRS 1708; assay type: cell-based; conditions: Staphylococcus aureus
MRS 1717 = assay: Growth inhibition of cannabinoid combinations, IC50s chosen for FICs, MRS 1717; assay type: cell-based; conditions: Staphylococcus aureus
Mupirocin-resistant MRS = assay type: cell-based, Staphylococcus aureus; conditions: in combination with Mupirocin
[4] = MRS USA 300, tested Conc. in μg/mL
[5] = MRS USA 400, tested Conc. in μg/mL
[6] = read-out: IC50, Cannabidiol (CBD) + Cannabigerol (CBG)
[7] = read-out: IC50, Cannabidiol (CBD) + Cannabinol (CBN)
[8] = read-out: IC50, Cannabidiol (CBD) + Cannabigerol (CBG), IC50 of first-named cannabinoid at the fixed ug/mL of the second given in the label
[9] = read-out: IC50, Cannabidiol (CBD) + Cannabinol (CBN), IC50 of first-named cannabinoid at the fixed ug/mL of the second given in the label
[10] = MRS 33591, tested Conc. in μg/mL
[11] = read-out: IC50, Cannabinol (CBN) + Cannabigerol (CBG)
[12] = IC50 of first-named cannabinoid at the fixed ug/mL of the second given in the label, read-out: IC50, Cannabinol (CBN) + Cannabigerol (CBG)

C=C(C)[C@@H]1CCC(C)=C[C@H]1c1c(O)cc(CCCCC)cc1O [CBD, Cannabidiol]
MBC (MRS USA 300; [4]): 3.33 | MIC (MRS USA 300; [4]): 1.67 | IC50 (MRS USA 300; Staphylococcus aureus, USA300): 2.99 µM and 0.94 µg/mL | MBC (MRS USA 300; Staphylococcus aureus, USA300): 10.6 ± 4.58 µM (≈ 3.33 µg/mL) | MIC (MRS USA 300; Staphylococcus aureus, USA300): 5.31 ± 2.29 µM (≈ 1.67 µg/mL) | IC50 [1]: 2.86 µM and 0.9 µg/mL | MBC [1]: 10.6 ± 4.58 µM (≈ 3.33 µg/mL) | MIC [1]: 5.31 ± 2.29 µM (≈ 1.67 µg/mL) | IC50 (MRS 33591 [2]; Staphylococcus aureus): 3.24 µM and 1.02 µg/mL | MIC (MRS 33591 [2]; Staphylococcus aureus): 6.61 µM and 2.08 µg/mL | MIC (MRS USA 400; [5]): 2.5 ± 0 | IC50 (MRS USA 400; Staphylococcus aureus, USA400): 3.69 µM and 1.16 µg/mL | MIC (MRS USA 400; Staphylococcus aureus, USA400): 7.95 µM (≈ 2.5 µg/mL) | IC50 (S. aureus 29213): 1.16 µg/mL (≈ 3.69 µM) | MIC (S. aureus 29213): 2.08 µg/mL (≈ 6.61 µM) | IC50 (MRS 33591 [3]; [6]): 1.23 µg/mL | IC50 (MRS 33591 [3]; [7]): 1.28 µg/mL | IC50 (MRS 1696; [6]): 1.28 µg/mL | IC50 (MRS 1696; [7]): 1.36 µg/mL | IC50 (MRS 1708; [8]): 0.96 µg/mL | IC50 (MRS 1708; [9]): 1.06 µg/mL | IC50 (MRS 1717; [6]): 0.864 µg/mL | IC50 (MRS 1717; [7]): 1.1 µg/mL | effect of combination with Mupirocin (Mupirocin-resistant MRS): no effect

CCCCCc1cc(O)c(C/C=C(\C)CCC=C(C)C)c(O)c1 [CBG, Cannabigerol]
MIC (MRS USA 300; [4]): 1.67 | IC50 (MRS USA 300; Staphylococcus aureus, USA300): 2.43 µM and 0.77 µg/mL | MBC (MRS USA 300; Staphylococcus aureus, USA300): > 63 µM | MIC (MRS USA 300; Staphylococcus aureus, USA300): 5.28 ± 2.27 µM (≈ 1.67 µg/mL) | IC50 [1]: 2.34 µM and 0.74 µg/mL | MBC [1]: > 63 µM | MIC [1]: 3.95 µM (≈ 1.25 µg/mL) | MBC (MRS 33591 [2]; [10]): 3.75 | IC50 (MRS 33591 [2]; Staphylococcus aureus): 2.31 µM and 0.73 µg/mL | MBC (MRS 33591 [2]; Staphylococcus aureus): 11.8 ± 5.59 µM (≈ 3.75 µg/mL) | MIC (MRS 33591 [2]; Staphylococcus aureus): 3.95 µM and 1.25 µg/mL | MIC (MRS USA 400; [5]): 1.67 | IC50 (MRS USA 400; Staphylococcus aureus, USA400): 2.72 µM and 0.86 µg/mL | MBC (MRS USA 400; Staphylococcus aureus, USA400): > 63 µM | MIC (MRS USA 400; Staphylococcus aureus, USA400): 5.28 ± 2.27 µM (≈ 1.67 µg/mL) | IC50 (S. aureus 29213): 0.75 µg/mL (≈ 2.37 µM) | MIC (S. aureus 29213): 1.25 µg/mL (≈ 3.95 µM) | IC50 (MRS 33591 [3]; [6]): 1.08 µg/mL | IC50 (MRS 33591 [3]; [11]): 1.05 µg/mL | IC50 (MRS 1696; [6]): 0.9 µg/mL | IC50 (MRS 1696; [11]): 0.896 µg/mL | IC50 (MRS 1708; [12]): 0.872 µg/mL | IC50 (MRS 1708; [8]): 0.959 µg/mL | IC50 (MRS 1717; [6]): 0.741 µg/mL | IC50 (MRS 1717; [11]): 0.911 µg/mL | effect of combination with Mupirocin (Mupirocin-resistant MRS): no effect

CCCCCc1cc(O)c2c(c1)OC(C)(C)c1ccc(C)cc1-2 [CNB, Cannabinol]
MBC (MRS USA 300; [4]): 3.33 | MIC (MRS USA 300; [4]): 2.5 ± 0 | IC50 (MRS USA 300; Staphylococcus aureus, USA300): 3.32 µM and 1.03 µg/mL | MBC (MRS USA 300; Staphylococcus aureus, USA300): 10.7 ± 4.64 µM (≈ 3.33 µg/mL) | MIC (MRS USA 300; Staphylococcus aureus, USA300): 8.05 µM (≈ 2.5 µg/mL) | AMC ([1]; Mupirocin-resistant MRS (Table 11)): 2.08 ± 0.72 | IC50 [1]: 2.77 µM and 0.86 µg/mL | MBC [1]: 6.7 ± 2.32 µM (≈ 2.08 µg/mL) | MIC [1]: 5.38 ± 7.32 µM (≈ 1.67 µg/mL) | MBC (MRS 33591 [2]; [10]): 4.17 | IC50 (MRS 33591 [2]; Staphylococcus aureus): 2.48 µM and 0.77 µg/mL | MBC (MRS 33591 [2]; Staphylococcus aureus): 13.4 ± 4.64 µM (≈ 4.17 µg/mL) | MIC (MRS 33591 [2]; Staphylococcus aureus): 4.03 µM and 1.25 µg/mL | MBC (MRS USA 400; [5]): 5.83 ± 3.82 | MIC (MRS USA 400; [5]): 2.5 ± 0 | IC50 (MRS USA 400; Staphylococcus aureus, USA400): 4.16 µM and 1.29 µg/mL | MBC (MRS USA 400; Staphylococcus aureus, USA400): 18.8 ± 12.3 µM (≈ 5.83 µg/mL) | MIC (MRS USA 400; Staphylococcus aureus, USA400): 8.05 µM (≈ 2.5 µg/mL) | IC50 (S. aureus 29213): 0.92 µg/mL (≈ 2.96 µM) | MIC (S. aureus 29213): 1.67 µg/mL (≈ 5.38 µM) | IC50 (MRS 33591 [3]; [7]): 1.09 µg/mL | IC50 (MRS 33591 [3]; [11]): 1.11 µg/mL | IC50 (MRS 1696; [7]): 1.5 µg/mL | IC50 (MRS 1696; [11]): 1.32 µg/mL | IC50 (MRS 1708; [12]): 1.07 µg/mL | IC50 (MRS 1708; [9]): 0.956 µg/mL | IC50 (MRS 1717; [7]): 0.908 µg/mL | IC50 (MRS 1717; [11]): 1.11 µg/mL | effect of combination with Mupirocin (Mupirocin-resistant MRS): no effect
